Measured values as given in ChEMBL document CHEMBL1159279, “Mechanism-based antitumor screening of Caribbean marine organisms: isolation and structure determination of novel diterpenoids from the gorgonian Eunicea tourneforti” (1995).

The molecules below were run on Saccharomyces cerevisiae (assay: Antifungal activity against DNA-damage repair genes deficient Saccharomyces cerevisiae RS 321 after 48 hrs by mechanism based bioassay).
Type: functional

Row | Structure (SMILES) | IC12 [µg/mL]
1 | CC(=O)OCC(COC(C)=O)=C1C=C[C@]2(C)C/C=C(\C)CC[C@@H]3O[C@@]3(C)CC[C@@H]12 | > 3000
2 | CC(=O)OC/C1=C\C[C@@]2(C)CC(=O)C(=C(C)C)[C@@H]2CC[C@]2(C)O[C@H]2CC1 | 1800
3 | C=C(C)C1C/C=C(\C)CC[C@H](O)[C@@]2(C)CCC=C(CC1)C(=O)O2 (stereo partly specified) | > 3000
4 | CC(=O)O[C@H]1C/C(C)=C/C[C@@]2(C)CC(=O)C(=C(C)C)[C@@H]2CC[C@]2(C)O[C@@H]12 | > 3000
5 | C/C1=C\C[C@@]2(C)C(=O)C=C(C(C)C)[C@@H]2CC[C@]2(C)O[C@H]2CC1 | 2600
6 | CC(C)=C1C(=O)C[C@]2(C)C/C=C(\C)CC[C@@H]3O[C@@]3(C)CC[C@@H]12 | 1500
